Assays:
[1] = excess molar enthalpy (molar enthalpy of mixing); xn = mol fraction of the nth substance listed; conditions: Liquid, Flow calorimetry
[2] = Liquid, Closed cell (Static) method

CC(=O)N(C)C [N,N-dimethylethanamide] + Cc1ccccc1
[1]
Conditions	excess molar enthalpy [kcal/mol]
363.15 K, 1955 kPa, x2 = 0.0436	0.00378
363.15 K, 1955 kPa, x2 = 0.0878	0.00686
363.15 K, 1955 kPa, x2 = 0.1327	0.0102
363.15 K, 1955 kPa, x2 = 0.1781	0.0134
363.15 K, 1955 kPa, x2 = 0.2242	0.0163
363.15 K, 1955 kPa, x2 = 0.2709	0.0193
363.15 K, 1955 kPa, x2 = 0.3182	0.0232
363.15 K, 1955 kPa, x2 = 0.3662	0.0263
363.15 K, 1955 kPa, x2 = 0.4149	0.0292
363.15 K, 1955 kPa, x2 = 0.4643	0.0318
363.15 K, 1955 kPa, x2 = 0.5144	0.0344
363.15 K, 1955 kPa, x2 = 0.5652	0.0361
363.15 K, 1955 kPa, x2 = 0.6168	0.0368
363.15 K, 1955 kPa, x2 = 0.6691	0.038
363.15 K, 1955 kPa, x2 = 0.7222	0.0385
363.15 K, 1955 kPa, x2 = 0.7761	0.0375
363.15 K, 1955 kPa, x2 = 0.8308	0.0349
363.15 K, 1955 kPa, x2 = 0.8864	0.0289
363.15 K, 1955 kPa, x2 = 0.9428	0.0178
413.15 K, 1824 kPa, x2 = 0.022	0.00251
413.15 K, 1824 kPa, x2 = 0.0441	0.00528
413.15 K, 1824 kPa, x2 = 0.0887	0.00963
413.15 K, 1824 kPa, x2 = 0.1338	0.014
413.15 K, 1824 kPa, x2 = 0.1796	0.0186
413.15 K, 1824 kPa, x2 = 0.2259	0.0225
413.15 K, 1824 kPa, x2 = 0.2728	0.0265
413.15 K, 1824 kPa, x2 = 0.3204	0.0311
413.15 K, 1824 kPa, x2 = 0.3686	0.0354
413.15 K, 1824 kPa, x2 = 0.4174	0.0406
413.15 K, 1824 kPa, x2 = 0.4668	0.0449
413.15 K, 1824 kPa, x2 = 0.5169	0.0485
413.15 K, 1824 kPa, x2 = 0.5677	0.0523
413.15 K, 1824 kPa, x2 = 0.6192	0.0554
413.15 K, 1824 kPa, x2 = 0.6714	0.0571
413.15 K, 1824 kPa, x2 = 0.7243	0.0576
413.15 K, 1824 kPa, x2 = 0.7779	0.0557
413.15 K, 1824 kPa, x2 = 0.8323	0.0497
413.15 K, 1824 kPa, x2 = 0.8874	0.0406
413.15 K, 1824 kPa, x2 = 0.9433	0.0246
413.15 K, 1824 kPa, x2 = 0.9715	0.0134

CC(=O)N(C)C [N,N-dimethylethanamide] + c1ccccc1
[1], 413.15 K, 1824 kPa
Conditions	excess molar enthalpy [kcal/mol]
x2 = 0.0261	-0.0033
x2 = 0.0522	-0.00617
x2 = 0.1042	-0.0116
x2 = 0.1817	-0.0187
x2 = 0.2586	-0.0239
x2 = 0.3604	-0.0277
x2 = 0.4361	-0.0275
x2 = 0.5114	-0.0241
x2 = 0.5861	-0.0193
x2 = 0.6603	-0.0129
x2 = 0.7584	-0.00356
x2 = 0.8315	0.00311
x2 = 0.904	0.00703
x2 = 0.9521	0.00629
x2 = 0.9761	0.00411

c1ccccc1 [benzene]
Conditions	vapor or sublimation pressure [kPa]
[2], 328.15 K	43.65

ClCCl [dichloromethane]
Conditions	vapor or sublimation pressure [kPa]
[2], 333.15 K	197.94

ClCCl [dichloromethane] + CC(=O)N(C)C
[1], 323.15 K, 1273 kPa
Conditions	excess molar enthalpy [kcal/mol]
x1 = 0.0709	-0.101
x1 = 0.1387	-0.188
x1 = 0.2037	-0.265
x1 = 0.2659	-0.328
x1 = 0.3257	-0.379
x1 = 0.3831	-0.412
x1 = 0.4383	-0.438
x1 = 0.4914	-0.454
x1 = 0.5425	-0.458
x1 = 0.5917	-0.456
x1 = 0.6391	-0.44
x1 = 0.6849	-0.417
x1 = 0.7291	-0.386
x1 = 0.7718	-0.348
x1 = 0.813	-0.303
x1 = 0.8529	-0.252
x1 = 0.8914	-0.195
x1 = 0.9288	-0.132
x1 = 0.965	-0.0681

CCO [ethanol]
Conditions	vapor or sublimation pressure [kPa]
[2], 353.15 K	108.42

CCOC(C)=O [ethyl acetate]
Conditions	vapor or sublimation pressure [kPa]
[2], 353.15 K	111.76

CCCCCCC [heptane]
Conditions	vapor or sublimation pressure [kPa]
[2], 353.15 K	57.09

CCCCCC [hexane]
Conditions	vapor or sublimation pressure [kPa]
[2], 353.15 K	142.4

CO [methanol]
Conditions	vapor or sublimation pressure [kPa]
[2], 343.15 K	125.65

C=CCCCCCC [oct-1-ene]
[2]
Conditions	vapor or sublimation pressure [kPa]
328.15 K	10.12
363.15 K	39.2

C=CCCCCCC [oct-1-ene] + CC(=O)N(C)C
[1], 363.15 K, 1858 kPa
Conditions	excess molar enthalpy [kcal/mol]
x1 = 0.03	0.0437
x1 = 0.0612	0.0906
x1 = 0.0938	0.135
x1 = 0.1279	0.176
x1 = 0.1636	0.213
x1 = 0.201	0.249
x1 = 0.2401	0.281
x1 = 0.2812	0.31
x1 = 0.3244	0.336
x1 = 0.3698	0.357
x1 = 0.4177	0.37
x1 = 0.4682	0.379
x1 = 0.5215	0.383
x1 = 0.5779	0.38
x1 = 0.6377	0.368
x1 = 0.7013	0.344
x1 = 0.7688	0.304
x1 = 0.8408	0.243
x1 = 0.9177	0.149

Cc1ccccc1 [toluene]
Conditions	vapor or sublimation pressure [kPa]
[2], 353.15 K	38.92
